According to EP4745138A1, “THIO-GLUTARIMIDO ISOINDOLINONE DERIVATIVE, BIFUNCTIONAL PROTEIN DEGRADER CONTAINING SAME, AND USES THEREOF” (Gluetacs Therapeutics (Shanghai) Co., Ltd., priority 2023, dated 2025):

Target: T1, human Cereblon WT GST-tagged protein (Homo sapiens, UniProt Q96SW2)
T1 construct: purchased CISBIO 64BDCRBNPEH
Assay: CRBN-binding affinity, HTRF (CEREBLON BINDING kit)
Details: for inhibition at 0.5 µM: read-out: Inhibition Rate at 0.5 µM (%); for inhibition at 2 µM: read-out: Inhibition Rate at 2 µM (%)
Source text: The CEREBLON BINDING kits (specification: 10,000 tests; product number: Catalog # 64BDCRBNPEH; CISBIO company) was used to determine the CRBN binding ability of the compounds to be tested through a HTRF method (homogeneous time-resolved fluorescence). The specific methods are as follows: • 1. […] Specifically, diluent #9 (1X) solution was used as the diluent, and multiple concentration gradients were set. […] Into the 96-well plate, the diluted test compounds and corresponding detection reagents were added, resulting in final test compound concentrations of 2 µM and 0.5 µM, respectively. […] Then, 2.5 µL of human Cereblon WT GST-tagged protein solution was added to each well. Finally, 5 µL of the thoroughly mixed Thalidomide-Re reagent and GST Eu antibody working solution were added to each of the aforementioned wells. […] The blank control wells were sequentially added with 2.5 µL of diluent #9 (1X) solution, 2.5 µL of PROTAC binding buffer, and 5 µL of thoroughly mixed Thalidomide-Re reagent and GST Eu antibody working solution. • 4.

T1 sequence (Q96SW2 whole entry): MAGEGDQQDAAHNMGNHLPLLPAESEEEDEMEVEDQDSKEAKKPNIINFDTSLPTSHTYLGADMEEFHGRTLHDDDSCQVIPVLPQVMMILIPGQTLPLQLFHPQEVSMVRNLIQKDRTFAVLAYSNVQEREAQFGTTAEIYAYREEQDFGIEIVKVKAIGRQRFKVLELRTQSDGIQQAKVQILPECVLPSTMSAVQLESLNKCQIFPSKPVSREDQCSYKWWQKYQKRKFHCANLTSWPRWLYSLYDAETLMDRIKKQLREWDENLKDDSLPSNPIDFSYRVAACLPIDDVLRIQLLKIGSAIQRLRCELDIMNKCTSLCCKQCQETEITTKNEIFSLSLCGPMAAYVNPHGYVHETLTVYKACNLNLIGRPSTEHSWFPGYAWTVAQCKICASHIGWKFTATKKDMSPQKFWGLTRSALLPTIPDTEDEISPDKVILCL

| Compound | inhibition at 0.5 µM [%] | inhibition at 2 µM [%] |
| --- | --- | --- |
| CC1(C)CCC(c2ccc(Cl)cc2)=C(CN2CCN(c3ccc(C(=O)NS(=O)(=O)c4ccc(N[C@H](CCN5CC6CCC(C5)N6Cc5ccc6c(c5)CN(C5CCC(=O)NC5=O)C6=S)CSc5ccccc5)c(S(=O)(=O)C(F)(F)F)c4)cc3)CC2)C1 (stereo partly drawn) [GT-09416, 4-(4-((4'-chloro-4,4-dimethyl-3,4,5,6-tetrahydro-[1,1'-biphenyl]-2-yl)methyl)piperazin-1-yl)-N-((4-(((2R)-4-(8-((2-(2,6-dioxopiperidin-3-yl)-1-thioxoisoindolin-5-yl)methyl)-3,8-diazabicyclo[3.2.1]octan-3-yl)-1-(phenylthio)butan-2-yl)amino)-3-((trifluoromethyl)sulfonyl)phenyl)sulfonyl)benzamide] | 80 to 100 | 80 to 100 |
| COc1cc2nn(C3CCN(Cc4ccc5c(c4)CN(C4CCC(=O)NC4=O)C5=S)CC3)cc2cc1NC(=O)c1cccc(C(F)(F)F)c1 (stereo not drawn) [GT-05295, N-(2-(1-((2-(2,6-dioxopiperidin-3-yl)-1-thioxoisoindolin-5-yl)methyl)piperidin-4-yl)-6-methoxy-2H-indazol-5-yl)-3-(trifluoromethyl)benzamide] | 60 to 80 | 80 to 100 |
| O=C1CCC(N2Cc3c(CN4CCN(c5ncc(C(=O)Nc6ccc(OC(F)(F)Cl)cc6)cc5-c5cc[nH]n5)CC4)cccc3C2=S)C(=O)N1 (stereo not drawn) [GT-08775, N-(4-(chlorodifluoromethoxy)phenyl)-6-(4-((2-(2,6-dioxopiperidin-3-yl)-1-thioxoisoindolin-4-yl)methyl)piperazin-1-yl)-5-(1H-pyrazol-3-yl)nicotinamide] | 30 to 40 | 60 to 80 |
| Nc1nnc(-c2cc(F)ccc2O)cc1N1CC2CCC(C1)N2Cc1ccc2c(c1)C(=S)N(C1CCC(=O)NC1=O)C2 (stereo not drawn) [GT-08791, 3-(6-((3-(3-amino-6-(5-fluoro-2-hydroxyphenyl)pyridazin-4-yl)-3,8-diazabicyclo[3.2.1]octan-8-yl)methyl)-1-thioxoisoindolin-2-yl)piperidine-2,6-dione] | 40 to 53 | 80 to 100 |
| Cc1cc(S(=O)(=O)N2CCN(Cc3ccc4c(c3)C(=S)N(C3CCC(=O)NC3=O)C4)CC2)ccc1Nc1ncc(Br)c(Nc2cccc(F)c2C(N)=O)n1 (stereo not drawn) [GT-08794, 2-((5-bromo-2-((4-((4-((2-(2,6-dioxopiperidin-3-yl)-3-thioxoisoindolin-5-yl)methyl)piperazin-1-yl)sulfonyl)-2-methylphenyl)amino)pyrimidin-4-yl)amino)-6-fluorobenzamide] | 53 to 60 | 60 to 80 |
| Nc1nnc(-c2ccccc2O)cc1N1CCN(Cc2ccc3c(c2)CN(C2CCC(=O)NC2=O)C3=S)CC1 (stereo not drawn) [GT-08785, 3-(5-((4-(3-amino-6-(2-hydroxyphenyl)pyridazin-4-yl)piperazin-1-yl)methyl)-1-thioxoisoindolin-2-yl)piperidine-2,6-dione] | 60 to 80 | 80 to 100 |
| Cn1c2ccncc2c2ccc(-c3ccc(N4CCN(Cc5ccc6c(c5)CN(C5CCC(=O)NC5=O)C6=S)CC4)nc3)cc21 (stereo not drawn) [GT-08982, 3-(5-((4-(5-(5-methyl-5H-pyrido[4,3-b]indol-7-yl)pyridin-2-yl)piperazin-1-yl)methyl)-1-thioxoisoindolin-2-yl)piperidine-2,6-dione] | 60 to 80 | 80 to 100 |
| CCN(c1cc(-c2ccc(CN3CCN(Cc4ccc5c(c4)CN(C4CCC(=O)NC4=O)C5=S)CC3)cc2)cc(C(=O)NCc2c(C)cc(C)[nH]c2=O)c1C)C1CCOCC1 (stereo not drawn) [GT-08886, N-((4,6-dimethyl-2-oxo-1,2-dihydropyridin-3-yl)methyl)-4'-((4-((2-(2,6-dioxopiperidin-3-yl)-1-thioxoisoindolin-5-yl)methyl)piperazin-1-yl)methyl)-5-(ethyl(tetrahydro-2H-pyran-4-yl)amino)-4-methyl-[1,1-biphenyl]-3-carboxamide] | 53 to 60 | 80 to 100 |
| Nc1nnc(-c2cc(F)ccc2O)cc1N1CC2CCC(C1)N2Cc1cccc2c1CN(C1CCC(=O)NC1=O)C2=S (stereo not drawn) [GT-08790, 3-(4-((3-(3-amino-6-(5-fluoro-2-hydroxyphenyl)pyridazin-4-yl)-3,8-diazabicyclo[3.2.1]octan-8-yl)methyl)-1-thioxoisoindolin-2-yl)piperidine-2,6-dione] | 60 to 80 | 80 to 100 |
| COC1CCN(c2nccc(Nc3cc4c(cn3)c(N3CCN(Cc5cccc6c5CN(C5CCC(=O)NC5=O)C6=S)CC3)nn4C(C)C)n2)CC1 (stereo not drawn) [GT-08759, 3-(4-((4-(1-isopropyl-6-((2-(4-methoxypiperidin-1-yl)pyrimidin-4-yl)amino)-1H-pyrazolo[4,3-c]pyridin-3-yl)piperazin-1-yl)methyl)-1-thioxoisoindolin-2-yl)piperidine-2,6-dione] | 30 to 40 | 60 to 80 |
| CC(C)(O)c1cc2nc(C3CCN(Cc4ccc5c(c4)CN(C4CCC(=O)NC4=O)C5=S)CC3)oc2cc1NC(=O)c1cccc(C(F)(F)F)n1 (stereo not drawn) [GT-05320, N-(2-(1-((2-(2,6-dioxopiperidin-3-yl)-1-thioxoisoindolin-5-yl)methyl)piperidin-4-yl)-5-(2-hydroxypropan-2-yl)benzo[d]oxazol-6-yl)-6-(trifluoromethyl)picolinamide] | 80 to 100 | 80 to 100 |
| Nc1nnc(-c2cc(F)ccc2O)cc1N1CCN(Cc2cccc3c2CN(C2CCC(=O)NC2=O)C3=S)CC1 (stereo not drawn) [GT-08788, 3-(4-((4-(3-amino-6-(5-fluoro-2-hydroxyphenyl)pyridazin-4-yl)piperazin-1-yl)methyl)-1-thioxoisoindolin-2-yl)piperidine-2,6-dione] | 40 to 53 | 80 to 100 |

Results, then the compound that gave them:

| inhibition at 0.5 µM [%] | inhibition at 2 µM [%] | Compound |
| --- | --- | --- |
| 53 to 60 | 80 to 100 | O=C1CCC(N2Cc3cc(CN4CCC(NC(=O)c5n[nH]cc5NC(=O)c5c(Cl)cccc5Cl)CC4)ccc3C2=S)C(=O)N1 (stereo not drawn) [GT-09434, 4-(2,6-dichlorobenzamido)-N-(1-((2-(2,6-dioxopiperidin-3-yl)-1-thioxoisoindolin-5-yl)methyl)piperidin-4-yl)-1H-pyrazole-3-carboxamide] |
| 40 to 53 | 80 to 100 | Nc1ncnc2c1c(-c1ccc(Oc3ccccc3)cc1)nn2C1CCN(Cc2ccc3c(c2)C(=S)N(C2CCC(=O)NC2=O)C3)CC1 (stereo not drawn) [GT-09441, 3-(6-((4-(4-amino-3-(4-phenoxyphenyl)-1H-pyrazolo[3,4-d]pyrimidin-1-yl)piperidin-1-yl)methyl)-1-thioxoisoindolin-2-yl)piperidine-2,6-dione] |
| 40 to 53 | 60 to 80 | CN(c1nccnc1CNc1nc(Nc2ccc(N3CCN(Cc4ccc5c(c4)C(=S)N(C4CCC(=O)NC4=O)C5)CC3)cc2)ncc1C(F)(F)F)S(C)(=O)=O (stereo not drawn) [GT-09437, N-(3-(((2-((4-(4-((2-(2,6-dioxopiperidin-3-yl)-3-thioxoisoindolin-5-yl)methyl)piperazin-1-yl)phenyl)amino)-5-(trifluoromethyl)pyrimidin-4-yl)amino)methyl)pyrazin-2-yl)-N-methylmethanesulfonamide] |
| 0 to 10 | 0 to 10 | Cc1cc(-c2nc(C(=O)Nc3cc4oc(N5CCOCC5)nc4nc3N3CC[C@@H](O)C3)co2)ccn1 [emavusertib, Emavusertib, reference compound] |
| 60 to 80 | 80 to 100 | CN(C)C(=O)c1cc2cnc(Nc3ccc(N4CCN(Cc5ccc6c(c5)C(=S)N(C5CCC(=O)NC5=O)C6)CC4)cn3)nc2n1C1CCCC1 (stereo not drawn) [GT-09427, 7-cyclopentyl-2-((5-(4-((2-(2,6-dioxopiperidin-3-yl)-3-thioxoisoindolin-5-yl)methyl)piperazin-1-yl)pyridin-2-yl)amino)-N,N-dimethyl-7H-pyrrolo[2,3-d]pyrimidine-6-carboxamide] |
| 40 to 53 | 60 to 80 | CCc1cc2c(cc1N1CCN(Cc3ccc4c(c3)CN(C3CCC(=O)NC3=O)C4=S)CC1)C(C)(C)c1[nH]c3cc(C#N)ccc3c1C2=O (stereo not drawn) [GT-09424, 8-(4-((2-(2,6-dioxopiperidin-3-yl)-1-thioxoisoindolin-5-yl)methyl)piperazin-1-yl)-9-ethyl-6,6-dimethyl-11-oxo-6,11-dihydro-5H-benzo[b]carbazole-3-carbonitrile] |
| 53 to 60 | 60 to 80 | CN(c1cccc(CNc2nc(Nc3ccc(N4CCN(Cc5ccc6c(c5)C(=S)N(C5CCC(=O)NC5=O)C6)CC4)cc3)ncc2C(F)(F)F)c1)S(C)(=O)=O (stereo not drawn) [GT-09438, N-(3-(((2-((4-(4-((2-(2,6-dioxopiperidin-3-yl)-3-thioxoisoindolin-5-yl)methyl)piperazin-1-yl)phenyl)amino)-5-(trifluoromethyl)pyrimidin-4-yl)amino)methyl)phenyl)-N-methylmethanesulfonamide] |
| 40 to 53 | 60 to 80 | CC(=O)c1c(C)c2cnc(Nc3ccc(N4CCN(Cc5ccc6c(c5)C(=S)N(C5CCC(=O)NC5=O)C6)CC4)cn3)nc2n(C2CCCC2)c1=O (stereo not drawn) [GT-09428, 3-(6-((4-(6-((6-acetyl-8-cyclopentyl-5-methyl-7-oxo-7,8-dihydropyrido[2,3-d]pyrimidin-2-yl)amino)pyridin-3-yl)piperazin-1-yl)methyl)-1-thioxoisoindolin-2-yl)piperidine-2,6-dione] |
| 20 to 30 | 60 to 80 | COc1cc2nn(C3CCN(Cc4cccc5c4CN(C4CCC(=O)NC4=O)C5=S)CC3)cc2cc1NC(=O)c1cccc(C(F)(F)F)c1 (stereo not drawn) [GT-09414, N-(2-(1-((2-(2,6-dioxopiperidin-3-yl)-1-thioxoisoindolin-4-yl)methyl)piperidin-4-yl)-6-methoxy-2H-indazol-5-yl)-3-(trifluoromethyl)benzamide] |
